Data reported in patent US6544991B2, “Compositions and methods for treating bacterial infections” (priority 2000, dated 2003).
Like-named read-outs stand apart in the source and are kept apart here.

Key:
[1] = test system: Staph. aureus 29213; assay: MIC, quality control strain; assay type: cell-based; conditions: for MIC: Staphylococcus aureus, read-out: MIC Values
Procedure, shortened: (§1)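 MICs determined by NCCLS agar dilution or microbroth dilution on clinical isolates, with Staph. aureus 29213 as quality control strain. Synergy by agar dilution checkerboard; FIC computed as MIC of drug in combination divided by MIC alone, summed into FIC index.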

[2] = test system: VRSA strains; assay: MIC by agar dilution or microbroth dilution method (NCCLS), VRSA strains; assay type: cell-based, Staph. aureus; conditions: VRSA strains (n = 10); for MIC: Staphylococcus aureus
Procedure, shortened: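 Clinical isolates from human infections, including VRSA strains from five countries, with S. aureus 29213 as QC strain. MICs by NCCLS agar dilution or microbroth dilution; combination synergy by agar dilution checkerboard, expressed as FIC index from MIC in combination over MIC alone.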

[3] = test system: MRSA strains; assay: MIC by agar dilution or microbroth dilution method (NCCLS); assay type: cell-based, Staph. aureus; conditions: for MIC: Staphylococcus aureus
Procedure, shortened: as §1

C[C@@H](O)[C@H]1C(=O)N2C(C(=O)O)=C(SCCN=CN)C[C@H]12 [IPM, imipenem]
2 µg/mL: MIC Values ([3]; strain 85/2082)
1 to 128 mg/L: MICs Range [2]
64 µg/mL: MIC Values ([3]; strain 99.3759V) | MIC Values ([3]; strain H1) | MIC Values ([3]; strain HIP 5827) | MIC Values ([3]; strain JSCC 340) | MIC Values ([3]; strain JSCC 401) | MIC Values ([3]; strain JSCC 451) | MIC Values ([3]; strain JSCC 463) | MIC Values ([3]; strain JSCC 481) | MIC Values ([3]; strain JSCC 540) | MIC Values ([3]; strain Mu 50) | MIC Values ([3]; strain NCTC 10442)
64 mg/L: MICs 90% [2] | MICs 90% ([3]; MRSA strains (n = 38))
128 µg/mL: MIC Values ([3]; strain BM12612(new)) | MIC Values ([3]; strain Mu 3)
16 mg/L: MICs 50% ([3]; MRSA strains (n = 38))
>0.125 to 128 mg/L: MICs Range ([3]; MRSA strains (n = 38))
1 µg/mL: MIC Values ([3]; strain HIP 6297) | MIC Values ([3]; strain JSCC 431) | MIC Values ([3]; strain JSCC 601) | MIC Values ([3]; strain N315)
≦0.125 mcg/mL: MIC Values ([1]; strain ATCC 29213, control sample (Ex. 26)) | MIC Values ([1]; strain ATCC29213, control sample (Ex. 37)) | MIC Values ([3]; strain JSCC 563) | MIC Values ([3]; strain JSCC 581 (lacks the mecA gene)) | MIC Values ([3]; strain JSCC 590 (lacks the mecA gene))
32 mg/L: MICs 50% [2]
16 µg/mL: MIC Values ([3]; strain JSCC 413) | MIC Values ([3]; strain JSCC 440) | MIC Values ([3]; strain JSCC 551) | MIC Values ([3]; strain JSCC 690) | MIC Values ([3]; strain JSCC 740) | MIC Values ([3]; strain JSCC 870)
8 µg/mL: MIC Values ([3]; strain HIP 5836) | MIC Values ([3]; strain JSCC 513) | MIC Values ([3]; strain JSCC 663) | MIC Values ([3]; strain JSCC 681) | MIC Values ([3]; strain JSCC 763) | MIC Values ([3]; strain LIM 2)
32 µg/mL: MIC Values ([3]; strain 99.3700W) | MIC Values ([3]; strain AMC 11094) | MIC Values ([3]; strain HIP 7737) | MIC Values ([3]; strain JSCC 351) | MIC Values ([3]; strain JSCC 363) | MIC Values ([3]; strain JSCC 381) | MIC Values ([3]; strain JSCC 390) | MIC Values ([3]; strain JSCC 490) | MIC Values ([3]; strain JSCC 501) | MIC Values ([3]; strain JSCC 531) | MIC Values ([3]; strain JSCC 640) | MIC Values ([3]; strain JSCC 651) | MIC Values ([3]; strain JSCC 701) | MIC Values ([3]; strain JSCC 713) | MIC Values ([3]; strain JSCC 731) | MIC Values ([3]; strain JSCC 751) | MIC Values ([3]; strain JSCC 781)

CC1(C)SC2C(NC(=O)C(N)c3ccccc3)C(=O)N2C1C(=O)O (stereo not drawn) [ABPC, α-aminobenzylpenicillin]
8 µg/mL: MIC ([3]; MRSA, strain JSCC 763, read-out: MIC Values) | MIC ([3]; MRSA, strain N315, read-out: MIC Values)
< 128 µg/mL: MIC ([3]; MRSA / NCTC 10442, strain NCTC 10442, read-out: MIC Values)
128 µg/mL: MIC ([3]; MRSA, strain JSCC 401, read-out: MIC Values)
1 µg/mL: MIC ([3]; MRSA, strain JSCC 563, read-out: MIC Values)
0.5 µg/mL: MIC ([1]; ATCC29213, strain ATCC 29213, control sample (Ex. 26)) | MIC ([3]; MRSA, strain JSCC 581 (lacks the mecA gene), read-out: MIC Values) | MIC ([3]; MRSA, strain JSCC 590 (lacks the mecA gene), read-out: MIC Values)
16 to 64 mg/L: MICs Range [2]
64 µg/mL: MIC ([2]; read-out: MICs 90%) | MIC ([3]; MRSA, MRSA strains (n = 38), read-out: MICs 90%) | MIC ([3]; MRSA, strain 99.3759V, read-out: MIC Values) | MIC ([3]; MRSA, strain BM12612(new), read-out: MIC Values) | MIC ([3]; MRSA, strain HIP 5827, read-out: MIC Values) | MIC ([3]; MRSA, strain JSCC 340, read-out: MIC Values) | MIC ([3]; MRSA, strain JSCC 431, read-out: MIC Values) | MIC ([3]; MRSA, strain JSCC 481, read-out: MIC Values) | MIC ([3]; MRSA, strain JSCC 490, read-out: MIC Values) | MIC ([3]; MRSA, strain JSCC 651, read-out: MIC Values) | MIC ([3]; MRSA, strain JSCC 751, read-out: MIC Values)
16 µg/mL: MIC ([3]; MRSA, MRSA strains (n = 38), read-out: MICs 50%) | MIC ([3]; MRSA, strain AMC 11094, read-out: MIC Values) | MIC ([3]; MRSA, strain H1, read-out: MIC Values) | MIC ([3]; MRSA, strain HIP 5836, read-out: MIC Values) | MIC ([3]; MRSA, strain HIP 6297, read-out: MIC Values) | MIC ([3]; MRSA, strain JSCC 363, read-out: MIC Values) | MIC ([3]; MRSA, strain JSCC 413, read-out: MIC Values) | MIC ([3]; MRSA, strain JSCC 451, read-out: MIC Values) | MIC ([3]; MRSA, strain JSCC 463, read-out: MIC Values) | MIC ([3]; MRSA, strain JSCC 513, read-out: MIC Values) | MIC ([3]; MRSA, strain JSCC 551, read-out: MIC Values) | MIC ([3]; MRSA, strain JSCC 601, read-out: MIC Values) | MIC ([3]; MRSA, strain JSCC 640, read-out: MIC Values) | MIC ([3]; MRSA, strain JSCC 663, read-out: MIC Values) | MIC ([3]; MRSA, strain JSCC 681, read-out: MIC Values) | MIC ([3]; MRSA, strain JSCC 690, read-out: MIC Values) | MIC ([3]; MRSA, strain JSCC 713, read-out: MIC Values) | MIC ([3]; MRSA, strain JSCC 740, read-out: MIC Values) | MIC ([3]; MRSA, strain JSCC 781, read-out: MIC Values)
0.25 µg/mL: MIC ([1]; ATCC29213, strain ATCC29213, control sample (Ex. 37))
32 µg/mL: MIC ([2]; read-out: MICs 50%) | MIC ([3]; MRSA, strain 85/2082, read-out: MIC Values) | MIC ([3]; MRSA, strain 99.3700W, read-out: MIC Values) | MIC ([3]; MRSA, strain HIP 7737, read-out: MIC Values) | MIC ([3]; MRSA, strain JSCC 351, read-out: MIC Values) | MIC ([3]; MRSA, strain JSCC 381, read-out: MIC Values) | MIC ([3]; MRSA, strain JSCC 390, read-out: MIC Values) | MIC ([3]; MRSA, strain JSCC 440, read-out: MIC Values) | MIC ([3]; MRSA, strain JSCC 501, read-out: MIC Values) | MIC ([3]; MRSA, strain JSCC 531, read-out: MIC Values) | MIC ([3]; MRSA, strain JSCC 540, read-out: MIC Values) | MIC ([3]; MRSA, strain JSCC 701, read-out: MIC Values) | MIC ([3]; MRSA, strain JSCC 731, read-out: MIC Values) | MIC ([3]; MRSA, strain JSCC 870, read-out: MIC Values) | MIC ([3]; MRSA, strain LIM 2, read-out: MIC Values) | MIC ([3]; MRSA, strain Mu 3, read-out: MIC Values) | MIC ([3]; MRSA, strain Mu 50, read-out: MIC Values)
